Assays:
Format in all cases: physicochemical
[1] = Refractive index and Abbe number (Abbe refractometer, NMP solutions extrapolated to 100% by weight); details: 20° C.; for Refractive index: 589 nm; for Abbe number: calculated from extrapolated refractive indices at 486, 589, 656 nm
Description: [5] Refractive Index and Abbe Number
The refractive index of each of the bisphenol, the polyarylate resin, the (meth)acrylate compound and the epoxy resin is a value determined using the following method and conditions. In addition, the Abbe number of each of the (meth)acrylate compound and the epoxy resin was calculated on the basis of the refractive index measured using the following method and conditions. • Apparatus: Abbe refractometer (“multiwavelength Abbe refractometer DR-2M” manufactured by ATAGO CO., LTD.) • Measurement wavelength: 589 nm (refractive index), 486, 589, 656 nm (Abbe number) • Measurement temperature: 20° C. • Refractive index of bisphenol: The bisphenol was dissolved in N-methyl-2-pyrrolidone (hereinafter, sometimes referred to as NMP) to prepare 5 wt %, 10 wt % and 15 wt % solutions, and the refractive index was measured for each of the solutions using the above-mentioned apparatus and conditions. Next, an approximate curve was derived from the obtained three measured values, and a value obtained by extrapolating the curve at 100% by weight was defined as a refractive index of each bisphenol. • Refractive index of polyarylate resin: A polyarylate resin powder was dissolved in NMP to prepare 1 wt %, 3 wt % and 5 wt % solutions, and the refractive index was measured for each of the solutions using the above-mentioned apparatus and conditions. Next, an approximate curve was derived from the obtained three measured values, and a value obtained by extrapolating the curve at 100% by weight was defined as a refractive index of each polyarylate resin. • Refractive index and Abbe number of (meth)acrylate compound: Each (meth)acrylate compound was dissolved in NMP to prepare a 5 wt %, 10 wt % and 15 wt % solutions (for Comparative Examples 4 and 5, 1 wt %, 3 wt % and 5 wt % solutions were prepared because the (meth)acrylate compound was hardly soluble in an organic solvent), and the refractive index at each wavelength was measured for each of the solutions using the above-mentioned apparatus and conditions. Next, an approximate curve was derived from the obtained three measured values, a value obtained by extrapolating the curve at 100% by weight was defined as a refractive index of each (meth)acrylate compound at each wavelength, and the Abbe number was calculated on the basis of the refractive index at each wavelength, which was determined as described above. • Refractive index and Abbe number of epoxy resin: Each epoxy resin was dissolved in NMP to prepare 5 wt %, 10 wt % and 15 wt % solutions, and the refractive index at each wavelength was measured for each of the solutions using the above-mentioned apparatus and conditions. Next, an approximate curve was derived from the obtained three measured values, a value obtained by extrapolating the curve at 100% by weight was defined as a refractive index of each epoxy resin at each wavelength, and the Abbe number was calculated on the basis of the refractive index at each wavelength, which was determined as described above.

[2] = 5% weight loss temperature (thermogravimetric instrument); details: bisphenol; 10° C./min from room temperature to 500° C., nitrogen gas stream
Description: [6] 5% Weight Loss Temperature
Using a thermogravimetric instrument (TGA-50 from Shimadzu Corporation), measurement was performed with the temperature elevated at a rate of 10° C./min from room temperature to 500° C. under a nitrogen gas stream.

[3] = Solubility test of (meth)acrylate compound; set-up: key: ◯: The sample is dissolved at room temperature.; Δ: The sample is dissolved when heated, and crystals are not precipitated even when the sample is cooled.; x: The sample is dissolved when heated, but crystals are precipitated when the sample is cooled, or the sample is not dissolved even when heated; details: for Solubility (30 mass % concentration) Monofunctional acrylate OPPEA: 30 parts by weight acrylate + 70 parts 2-phenylphenoxyethyl acrylate; for Solubility (30 mass % concentration) Solvent EA: 30 parts by weight acrylate + 70 parts ethyl acetate; for Solubility (30 mass % concentration) Monofunctional acrylate POB-A: 30 parts by weight acrylate + 70 parts m-phenoxybenzyl acrylate; for Solubility (30 mass % concentration) Solvent MEK: 30 parts by weight acrylate + 70 parts methyl ethyl ketone; for Solubility (30 mass % concentration) Solvent PGME: 30 parts by weight acrylate + 70 parts propylene glycol monomethyl ether; for Solubility (30 mass % concentration) Solvent PGMEA: 30 parts by weight acrylate + 70 parts propylene glycol monomethyl ether acetate
Description: (9-2) Solubility Test of (Meth)Acrylate Compound
30 parts by weight of the (meth)acrylate compound and 70 parts by weight of each of the diluents (solvent or monofunctional acrylate) shown in Table 3 were mixed, and solubility was evaluated on the basis of the following evaluation criteria.
◯: The sample is dissolved at room temperature.
Δ: The sample is dissolved when heated, and crystals are not precipitated even when the sample is cooled.
x: The sample is dissolved when heated, but crystals are precipitated when the sample is cooled, or the sample is not dissolved even when heated.

[4] = Glass transition temperature (DSC); details: (meth)acrylate compound; DSC 10° C./min
Description: [4] Melting Point (Melt Endothermic Maximum Temperature in Differential Scanning Calorimetry (DSC)) and Glass Transition Temperature
5 mg of a sample was precisely weighed, and taken in an aluminum pan, measurement was performed under the following operation conditions with aluminum oxide as a control using a differential scanning calorimeter (DSC 7020 manufactured by SII NanoTechnology Inc.), and the detected melt endothermic maximum temperature was defined as a melting point. For a sample (amorphous material, resin or the like) in which a melt endothermic peak was not detected, the intersection of tangent lines at an inflection point was defined as a glass transition temperature (Tg).
• Temperature elevation rate: 10° C./min (for bisphenol and (meth)acrylate compound) and 20° C./min (for polyarylate resin) • Measurement range: 30 to 250° C. (for bisphenol), 150 to 250° C. (for polyarylate resin) and −30 to 350° C. (for (meth)acrylate compound) • atmosphere: Open, nitrogen: 40 ml/min

[5] = bisphenol, 5, 10, 15 wt % NMP solutions extrapolated to 100% by weight
[6] = (meth)acrylate compound, 5, 10, 15 wt % NMP solutions (Comparative Examples 4 and 5: 1, 3, 5 wt %) extrapolated to 100% by weight

Row | Structure (SMILES) | Refractive index [1, 5] | 5% weight loss temperature [2] [°C] | Refractive index [1, 6] | Abbe number ([1]; (meth)acrylate compound) | Solubility (30 mass % concentration) Monofunctional acrylate OPPEA [3] | Solubility (30 mass % concentration) Solvent EA [3] | Solubility (30 mass % concentration) Monofunctional acrylate POB-A [3] | Solubility (30 mass % concentration) Solvent MEK [3] | Solubility (30 mass % concentration) Solvent PGME [3] | Solubility (30 mass % concentration) Solvent PGMEA [3] | Tg [4] [°C]
1 | OCCOc1ccc(C2(c3ccc(OCCO)c(-c4ccccc4)c3)c3ccccc3-c3ccccc32)cc1-c1ccccc1 [Reference Example 1] | 1.65 | 363 | – | – | – | – | – | – | – | – | –
2 | Oc1c(Cc2ccccc2)cc(C2(c3cc(Cc4ccccc4)c(O)c(-c4ccccc4)c3)c3ccccc3-c3ccccc32)cc1-c1ccccc1 [Example 1] | 1.67 | 357 | – | – | – | – | – | – | – | – | –
3 | Oc1ccc(C2(c3ccc(O)c(-c4ccccc4)c3)c3ccccc3-c3ccccc32)cc1-c1ccccc1 [Comparative Example 1] | 1.67 | 306 | – | – | – | – | – | – | – | – | –
4 | C=CC(=O)Oc1ccc(C2(c3ccc(OC(=O)C=C)c(C)c3)c3ccccc3-c3ccccc32)cc1C [Comparative Example 4] | – | – | 1.606 | 25.5 | x | x | x | x | x | x | –
5 | C=CC(=O)Oc1ccc(C2(c3ccc(OC(=O)C=C)c(-c4ccccc4)c3)c3ccccc3-c3ccccc32)cc1-c1ccccc1 [Comparative Example 5] | – | – | 1.644 | 21.4 | x | x | x | x | x | x | –
6 | C=CC(=O)OCCOc1ccc(C2(c3ccc(OCCOC(=O)C=C)c(C)c3)c3ccccc3-c3ccccc32)cc1C [Comparative Example 6] | – | – | 1.591 | 23.1 | ∘ | ∘ | ∘ | ∘ | x | ∘ | 0.0
7 | C=CC(=O)Oc1c(Cc2ccccc2)cc(C2(c3cc(Cc4ccccc4)c(OC(=O)C=C)c(-c4ccccc4)c3)c3ccccc3-c3ccccc32)cc1-c1ccccc1 [Example 5] | – | – | 1.633 | 19.7 | ∘ | ∘ | ∘ | ∘ | ∘ | ∘ | 32.4
8 | C=CC(=O)Oc1ccc2ccccc2c1-c1c(OC(=O)C=C)ccc2ccccc12 [Reference Example 2] | – | – | 1.632 | 19.0 | x | ∘ | x | ∘ | x | x | –
